Data on four molecules can be found in ChEMBL document CHEMBL2169838, “Synthesis and biological evaluation of the 1-arylpyrazole class of σ(1) receptor antagonists: identification of 4-{2-[5-methyl-1-(naphthalen-2-yl)-1H-pyrazol-3-yloxy]ethyl}morpholine (S1RA, E-52862)” (J Med Chem, 2012).

The test system of series [1] is Mus musculus. Description: Analgesic activity in CD1 mouse assessed as inhibition of capsaicin-induced mechanical hypersensitivity at 16 mg/kg, ip administered 15 mins prior to capsaicin challenge measured 30 mins post capsaicin challenge. Format: functional. Particulars: route intraperitoneal.
Series [2] concerns the target T1, Cytochrome P450 2C9 (Homo sapiens, UniProt P11712). Description: Inhibition of human recombinant CYP2C9. Format: ADME.
Series [3] concerns Mus musculus. Description: Cmax in CD1 mouse at 10 mg/kg, po at 0.5 hrs. Format: ADME, organism-based. More on the design: dose 10 mg/kg, route oral. Particulars: in vivo.
A short description of series [4]: Dissociation constant, pKa of the compound. Format: physicochemical.
The target of series [5] is T2, Cytochrome P450 1A2 (Homo sapiens, UniProt P05177).
T2 sequence (P05177 whole entry): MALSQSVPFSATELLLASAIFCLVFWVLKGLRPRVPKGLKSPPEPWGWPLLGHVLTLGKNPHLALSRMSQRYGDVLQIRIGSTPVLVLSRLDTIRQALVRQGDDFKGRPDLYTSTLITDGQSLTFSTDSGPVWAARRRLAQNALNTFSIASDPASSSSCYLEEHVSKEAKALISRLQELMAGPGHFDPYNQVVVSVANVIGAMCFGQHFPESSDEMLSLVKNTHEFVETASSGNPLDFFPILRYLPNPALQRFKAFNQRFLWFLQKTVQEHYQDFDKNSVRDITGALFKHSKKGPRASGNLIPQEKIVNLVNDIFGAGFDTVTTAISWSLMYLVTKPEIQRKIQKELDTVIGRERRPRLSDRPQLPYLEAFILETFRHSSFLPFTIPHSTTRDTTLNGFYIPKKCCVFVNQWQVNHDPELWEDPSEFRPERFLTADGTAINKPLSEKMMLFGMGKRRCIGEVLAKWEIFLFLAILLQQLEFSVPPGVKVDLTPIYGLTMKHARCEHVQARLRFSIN
Description: Inhibition of CYP1A2 in human liver microsomes. Format: ADME, Microsome. (Liver microsomes are vesicles of endoplasmic reticulum, rich in cytochrome P450 enzymes.)

Series [6] is described as follows: Binding affinity to rat sigma 2 receptor.
Series [7] can be described thus: Partition coefficient, log P of the compound by PH-metrivc technique. Format: physicochemical. The following applies: octanol/water.
The target of series [8] is T3, Cytochrome P450 2B6 (Homo sapiens, UniProt P20813).
T3 sequence (P20813 whole entry): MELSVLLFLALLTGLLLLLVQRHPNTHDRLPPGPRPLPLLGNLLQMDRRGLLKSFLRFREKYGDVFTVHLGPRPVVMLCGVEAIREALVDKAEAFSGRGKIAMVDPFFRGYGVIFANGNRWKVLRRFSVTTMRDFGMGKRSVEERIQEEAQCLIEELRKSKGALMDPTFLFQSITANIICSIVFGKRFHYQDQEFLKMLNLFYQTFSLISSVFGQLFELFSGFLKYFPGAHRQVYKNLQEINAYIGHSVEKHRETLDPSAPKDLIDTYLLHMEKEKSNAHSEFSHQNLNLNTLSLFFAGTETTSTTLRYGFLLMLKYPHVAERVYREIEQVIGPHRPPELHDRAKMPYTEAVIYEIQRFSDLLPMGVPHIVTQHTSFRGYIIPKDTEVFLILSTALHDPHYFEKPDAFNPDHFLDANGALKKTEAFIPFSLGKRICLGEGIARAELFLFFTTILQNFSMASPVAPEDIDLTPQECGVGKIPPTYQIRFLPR
Description: Inhibition of human recombinant CYP2B6. Format: ADME.

Series [9] can be described thus: Displacement of [3H]di-o-tolylguanidine from sigma 2 receptor in guinea pig brain membranes after 120 mins by scintillation counter. Format: cell membranes, Cavia porcellus, Membrane. (Loss of bound radioactivity is the signal in a displacement assay; it reports binding, not function.)
The target of series [10] is T4, Cytochrome P450 2C8 (Homo sapiens, UniProt P10632).
T4 sequence (P10632 whole entry): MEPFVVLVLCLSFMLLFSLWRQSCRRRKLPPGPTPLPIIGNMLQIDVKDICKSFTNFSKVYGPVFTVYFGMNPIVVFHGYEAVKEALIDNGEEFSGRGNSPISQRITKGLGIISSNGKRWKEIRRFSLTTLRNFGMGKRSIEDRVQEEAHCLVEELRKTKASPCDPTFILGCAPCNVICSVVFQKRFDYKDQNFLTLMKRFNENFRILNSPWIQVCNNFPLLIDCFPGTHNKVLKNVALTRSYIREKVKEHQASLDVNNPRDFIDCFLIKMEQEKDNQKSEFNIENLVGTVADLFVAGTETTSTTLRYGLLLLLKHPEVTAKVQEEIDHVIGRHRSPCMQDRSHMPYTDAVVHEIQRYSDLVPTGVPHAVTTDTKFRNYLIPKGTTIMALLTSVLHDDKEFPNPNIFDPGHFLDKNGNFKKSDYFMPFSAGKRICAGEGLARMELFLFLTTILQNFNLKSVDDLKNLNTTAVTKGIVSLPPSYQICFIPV
Description: Inhibition of human recombinant CYP2C8. Format: ADME.

For series [11], the target named is T5, 5-hydroxytryptamine receptor 2B (Homo sapiens, UniProt P41595). Description: Antagonist activity at human 5HT2B receptor. Format: functional.
In series [12] the target is T4, Cytochrome P450 2C8. Description: Inhibition of CYP2C8 in human liver microsomes. Format: ADME, Microsome.
Series [13] deals with T5, 5-hydroxytryptamine receptor 2B. Description: Binding affinity to human 5HT2B receptor.
In series [14] the target is T6, Cytochrome P450 2D6 (Homo sapiens, UniProt P10635). The experiment in a line: Inhibition of CYP2D6 in human liver microsomes. Format: ADME, Microsome.
In series [15] the test system is Mus musculus. The experiment in a line: Neurotoxicity in CD1 mouse assessed as motor impairment at 32 to 64 mg/kg, ip measured after 30 to 180 mins by rotarod test. Particulars: in vivo. More on the design: route intraperitoneal. Format: toxicity, organism-based.
Series [16] addresses T7, Cytochrome P450 2E1 (Homo sapiens, UniProt P05181). The experiment in a line: Inhibition of human recombinant CYP2E1. Format: ADME.
For series [17], the target named is T7, Cytochrome P450 2E1. Description: Inhibition of CYP2E1 in human liver microsomes. Format: ADME, Microsome.
Series [18] relates to Mus musculus. Description: Antihyperalgesic activity in ip dosed CD1 mouse partial sciatic nerve ligation model assessed as inhibition of thermal hyperalgesia administered 45 mins by plantar test. Format: functional.
Series [19] deals with T6, Cytochrome P450 2D6. Description: Inhibition of human recombinant CYP2D6. Format: ADME.
For series [20], the target named is T8, Cytochrome P450 2C19 (Homo sapiens, UniProt P33261). Description: Inhibition of human recombinant CYP2C19. Format: ADME.
Series [21] can be described thus: Thermodynamic solubility of the compound in phosphate buffer at pH 7.4. Format: physicochemical. The following applies: read-out: Therm_solubility.
Series [22] addresses T2, Cytochrome P450 1A2. The experiment in a line: Inhibition of human recombinant CYP1A2. Format: ADME.
In series [23] the target is T3, Cytochrome P450 2B6. Description: Inhibition of CYP2B6 in human liver microsomes. Format: ADME, Microsome.
The target in series [24] is T1, Cytochrome P450 2C9. Description: Inhibition of CYP2C9 in human liver microsomes. Format: ADME, Microsome.
The nature of series [25]: Intrinsic clearance in human liver microsomes assessed as per mg of protein at 10 uM. Format: ADME, Microsome. The following applies: read-out: CLH.
A short description of series [26]: Lipophilicity, log D of the compound by PH-metrivc technique. Format: physicochemical. Particulars: octanol/water.
For series [27], the target named is T8, Cytochrome P450 2C19. Description: Inhibition of CYP2C19 in human liver microsomes. Format: ADME, Microsome.
Series [28] in a line: AUC in CD1 mouse at 10 mg/kg, po. More on the design: dose 10 mg/kg, route oral. The following applies: plasma. Format: ADME, organism-based.
Series [29] has as its system Mus musculus. The experiment in a line: Antiallodynic activity in ip dosed CD1 mouse partial sciatic nerve ligation model assessed as inhibition of mechanical allodynia administered 30 mins by von Frey test. Format: functional.
Series [30] deals with Mus musculus. The experiment in a line: Inhibition of capsaicin-induced mechanical hypersensitivity in CD1 mouse assessed as paw withdrawal latency at 32 mg/kg, ip administered 15 mins prior to capsaicin challenge measured 30 mins post capsaicin challenge. Format: functional. Particulars: route intraperitoneal.
A short description of series [31]: Apparent permeability across human Caco2 cells at 10 uM after 2 hrs. The following applies: Caco-2. Format: ADME, cell-based.
The target of series [32] is Sigma non-opioid intracellular receptor 1 (Homo sapiens, UniProt Q99720). Description: biochemical.
Description: Displacement of [3H](+)pentazocine from human sigma 1 receptor transfected in HEK293 cell membranes after 120 mins by scintillation counter
The target in series [33] is Voltage-gated inwardly rectifying potassium channel KCNH2 (Homo sapiens, UniProt Q12809).
Description: Inhibition of human ERG transfected in HEK293 cell membranes by whole cell patch clamp assay
Series [34] deals with Mus musculus. Description: Antihyperalgesic activity in CD1 mouse partial sciatic nerve ligation model assessed as inhibition of thermal hyperalgesia at 16 to 64 mg/kg, ip administered 45 mins by plantar test. Format: functional, organism-based.
Series [35] concerns Mus musculus. Description: Antiallodynic activity in CD1 mouse partial sciatic nerve ligation model assessed as inhibition of mechanical allodynia at 16 to 64 mg/kg, ip administered 30 mins by von Frey test. Format: functional, organism-based.

In brackets after ≈: the same amount, converted by molar mass. Activity calls are given as the source filed them. The calls are words filed in the database; no cut-off is given here.

Sequence of Voltage-gated inwardly rectifying potassium channel KCNH2 (Q12809 whole entry): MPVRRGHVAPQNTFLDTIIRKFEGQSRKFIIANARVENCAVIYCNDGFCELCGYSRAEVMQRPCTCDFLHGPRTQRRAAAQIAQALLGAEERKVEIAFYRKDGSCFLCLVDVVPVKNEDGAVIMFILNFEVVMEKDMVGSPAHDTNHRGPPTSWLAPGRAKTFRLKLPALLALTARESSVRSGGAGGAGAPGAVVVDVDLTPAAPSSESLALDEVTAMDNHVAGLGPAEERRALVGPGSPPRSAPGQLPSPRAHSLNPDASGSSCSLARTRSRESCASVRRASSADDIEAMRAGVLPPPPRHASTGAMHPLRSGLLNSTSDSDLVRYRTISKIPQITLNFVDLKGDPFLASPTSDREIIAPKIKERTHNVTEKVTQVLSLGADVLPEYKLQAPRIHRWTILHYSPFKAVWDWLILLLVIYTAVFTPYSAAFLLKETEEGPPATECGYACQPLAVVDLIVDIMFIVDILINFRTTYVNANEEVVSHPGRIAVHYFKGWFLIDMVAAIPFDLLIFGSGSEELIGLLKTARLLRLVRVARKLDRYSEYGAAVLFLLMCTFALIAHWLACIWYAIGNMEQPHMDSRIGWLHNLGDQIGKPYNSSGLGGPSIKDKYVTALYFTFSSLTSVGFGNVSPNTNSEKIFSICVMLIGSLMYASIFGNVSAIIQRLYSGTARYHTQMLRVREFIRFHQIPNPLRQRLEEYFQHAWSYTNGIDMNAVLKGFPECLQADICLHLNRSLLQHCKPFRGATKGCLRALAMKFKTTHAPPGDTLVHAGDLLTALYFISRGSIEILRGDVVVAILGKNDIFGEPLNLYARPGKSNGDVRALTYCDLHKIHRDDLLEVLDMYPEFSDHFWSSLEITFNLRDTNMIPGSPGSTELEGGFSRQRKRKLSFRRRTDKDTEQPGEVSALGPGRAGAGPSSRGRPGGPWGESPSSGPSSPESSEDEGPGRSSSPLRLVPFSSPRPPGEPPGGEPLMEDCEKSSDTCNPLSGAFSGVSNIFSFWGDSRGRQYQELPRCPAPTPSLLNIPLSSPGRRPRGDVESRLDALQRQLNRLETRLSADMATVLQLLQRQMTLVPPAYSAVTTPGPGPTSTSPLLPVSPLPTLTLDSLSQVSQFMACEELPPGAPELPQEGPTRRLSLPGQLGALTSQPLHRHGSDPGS
T1 sequence (P11712 whole entry): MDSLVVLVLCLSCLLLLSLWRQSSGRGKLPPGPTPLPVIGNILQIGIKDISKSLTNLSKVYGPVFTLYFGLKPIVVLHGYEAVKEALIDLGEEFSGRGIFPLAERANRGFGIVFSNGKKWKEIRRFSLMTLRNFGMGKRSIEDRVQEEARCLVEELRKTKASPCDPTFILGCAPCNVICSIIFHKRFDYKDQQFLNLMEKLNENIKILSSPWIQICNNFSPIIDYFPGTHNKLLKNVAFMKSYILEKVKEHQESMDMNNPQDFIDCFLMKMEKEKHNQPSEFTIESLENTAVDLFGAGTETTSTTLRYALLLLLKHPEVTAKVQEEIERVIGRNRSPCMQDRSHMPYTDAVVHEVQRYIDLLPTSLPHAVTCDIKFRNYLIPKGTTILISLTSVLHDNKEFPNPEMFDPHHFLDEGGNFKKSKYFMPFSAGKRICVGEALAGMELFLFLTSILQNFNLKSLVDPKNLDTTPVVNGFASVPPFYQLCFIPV
Sequence of Sigma non-opioid intracellular receptor 1 (Q99720 whole entry): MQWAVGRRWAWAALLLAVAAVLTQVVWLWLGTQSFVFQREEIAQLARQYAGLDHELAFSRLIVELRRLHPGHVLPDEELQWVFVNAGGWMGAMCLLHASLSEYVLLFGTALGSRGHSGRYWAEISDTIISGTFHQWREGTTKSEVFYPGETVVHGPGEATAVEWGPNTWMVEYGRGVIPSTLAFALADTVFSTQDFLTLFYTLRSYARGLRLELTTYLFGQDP
T5 sequence (P41595 whole entry): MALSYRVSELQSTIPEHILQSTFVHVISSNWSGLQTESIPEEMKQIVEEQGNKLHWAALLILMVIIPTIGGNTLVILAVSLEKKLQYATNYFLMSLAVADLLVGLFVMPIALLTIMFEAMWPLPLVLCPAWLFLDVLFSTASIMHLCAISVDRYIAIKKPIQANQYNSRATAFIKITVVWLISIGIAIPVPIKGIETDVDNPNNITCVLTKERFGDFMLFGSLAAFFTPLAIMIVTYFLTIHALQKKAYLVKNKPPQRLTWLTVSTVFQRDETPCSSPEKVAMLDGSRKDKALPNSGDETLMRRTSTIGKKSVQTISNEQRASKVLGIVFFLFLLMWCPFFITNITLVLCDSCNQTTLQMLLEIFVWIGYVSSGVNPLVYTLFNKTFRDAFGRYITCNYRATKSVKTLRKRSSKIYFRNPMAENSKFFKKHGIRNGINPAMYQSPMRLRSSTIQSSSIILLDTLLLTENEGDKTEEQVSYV
T6 sequence (P10635 whole entry): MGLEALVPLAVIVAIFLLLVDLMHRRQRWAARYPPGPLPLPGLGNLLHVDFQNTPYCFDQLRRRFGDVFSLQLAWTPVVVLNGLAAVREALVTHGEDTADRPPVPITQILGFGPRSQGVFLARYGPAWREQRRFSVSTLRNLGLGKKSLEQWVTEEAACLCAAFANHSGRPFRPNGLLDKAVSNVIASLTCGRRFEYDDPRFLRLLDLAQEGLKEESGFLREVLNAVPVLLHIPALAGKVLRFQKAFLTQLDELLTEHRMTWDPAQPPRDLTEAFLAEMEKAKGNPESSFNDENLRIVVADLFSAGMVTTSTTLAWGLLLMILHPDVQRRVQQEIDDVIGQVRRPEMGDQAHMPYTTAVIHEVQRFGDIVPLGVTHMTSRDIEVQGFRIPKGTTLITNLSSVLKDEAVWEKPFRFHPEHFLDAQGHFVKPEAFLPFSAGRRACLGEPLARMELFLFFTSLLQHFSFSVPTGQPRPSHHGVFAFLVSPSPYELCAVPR
T7 sequence (P05181 whole entry): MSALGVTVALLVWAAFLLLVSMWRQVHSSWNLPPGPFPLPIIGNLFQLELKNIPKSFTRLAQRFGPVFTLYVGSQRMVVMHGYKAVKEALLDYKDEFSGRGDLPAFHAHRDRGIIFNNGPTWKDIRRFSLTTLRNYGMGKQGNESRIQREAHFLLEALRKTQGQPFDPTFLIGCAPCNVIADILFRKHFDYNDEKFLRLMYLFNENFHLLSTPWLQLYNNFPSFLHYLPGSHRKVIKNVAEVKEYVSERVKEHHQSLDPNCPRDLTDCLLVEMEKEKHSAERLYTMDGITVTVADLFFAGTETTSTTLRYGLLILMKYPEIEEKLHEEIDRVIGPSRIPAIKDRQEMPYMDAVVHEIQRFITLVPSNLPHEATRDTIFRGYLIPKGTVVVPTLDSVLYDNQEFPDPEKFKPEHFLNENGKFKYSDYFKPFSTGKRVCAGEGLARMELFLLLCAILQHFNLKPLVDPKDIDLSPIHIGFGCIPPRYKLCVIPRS
T8 sequence (P33261 whole entry): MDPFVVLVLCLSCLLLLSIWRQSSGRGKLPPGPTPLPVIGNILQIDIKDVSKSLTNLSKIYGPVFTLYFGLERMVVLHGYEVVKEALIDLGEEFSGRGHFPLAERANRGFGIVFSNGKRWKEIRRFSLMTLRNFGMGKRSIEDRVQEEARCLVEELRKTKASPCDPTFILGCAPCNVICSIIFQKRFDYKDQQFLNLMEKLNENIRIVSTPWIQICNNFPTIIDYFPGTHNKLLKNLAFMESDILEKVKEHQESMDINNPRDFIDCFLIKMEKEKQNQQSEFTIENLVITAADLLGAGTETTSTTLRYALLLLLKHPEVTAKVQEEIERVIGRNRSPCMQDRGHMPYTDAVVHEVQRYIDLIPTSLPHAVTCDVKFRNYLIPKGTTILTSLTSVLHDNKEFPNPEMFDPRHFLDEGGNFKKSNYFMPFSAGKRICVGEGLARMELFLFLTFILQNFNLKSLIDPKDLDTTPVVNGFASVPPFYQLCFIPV

The term inhibition in vivo denotes the change of the read-out against control, counted positive when it falls. Usually IC50 stands for the point on the concentration scale where inhibition reaches its midpoint. As a reminder, the Cmax is the maximum level reached in the sampled fluid or tissue. Broadly, the pKa is the negative logarithm of the acid dissociation constant. Low readings indicate a stronger acid or weaker base, high ones a weaker acid or stronger base. As usually defined, the Ki is the dissociation constant of the complex between target and ligand, obtained from inhibition or displacement. For orientation: logP means a log measure of how a compound divides between an organic and an aqueous phase. As a reminder, the ED50 is the dose at which the effect has come halfway, by size or by number of responders. The term logD denotes the decadic logarithm of the distribution of all forms, ionised or not, between an organic phase and buffer at a given pH. In general, AUC refers to concentration integrated over time. A higher AUC goes with high exposure. Usually Papp stands for a coefficient for how fast a substance crosses the barrier. On to `Cc1cc(OCCN2CCOCC2)nn1-c1ccc2ccccc2c1`, for which the inhibition in vivo at 16 mg/kg in the series on Mus musculus [1] came out at 43%. Moreover, the 50% inhibitory concentration (IC50) is more than 10 µM on Cytochrome P450 2C9 [2]; more than 10 µM against Cytochrome P450 1A2 [5]; more than 10 µM at Cytochrome P450 2B6 [8]; more than 10 µM on Cytochrome P450 2C8 [10]; 4.7 µM in series [11]; more than 10 µM against Cytochrome P450 2C8 [12]. Further, the IC50 on Cytochrome P450 2D6 [14], at Cytochrome P450 2E1 [16], at Cytochrome P450 2E1 [17], on Cytochrome P450 2D6 [19], on Cytochrome P450 2C19 [20] and on Cytochrome P450 1A2 [22] was more than 10 µM each time. Besides, the IC50 on Cytochrome P450 2B6 [23], against Cytochrome P450 2C9 [24] and against Cytochrome P450 2C19 [27] was more than 10 µM each time. In addition, the Cmax with Mus musculus [3] was determined as 62 ng/mL. The pKa in series [4] was 6.5. In addition, the figures for the Ki in [6], in series [9] and in series [13] were 9.3 µM, more than 1 µM and 0.328 µM, respectively. Besides, the logP in series [7] stood at 3.5. Further, in the series on Mus musculus [15], the Activity result was “Non-toxic”. For the same molecule, the inhibition result in the series with Mus musculus [18] and with Mus musculus [29] was “Dose-dependent effect” each time. Besides, the ED50 was 18.8 mg/kg in the series with Mus musculus [18] (0.75 h) and 23.4 mg/kg in the series on Mus musculus [29] (0.5 h). Besides, the solubility thermodynamic in series [21] stood at 200 µg/mL (≈ 593 µM). For the same molecule, in series [25], the microsomal CLint at 10 µM came to 3 µL/min/mg. In [26], this molecule returned a logD of 3.4. Moreover, in series [28], the exposure (AUC) was 958 ng·h/mL. For the same molecule, the inhibition in vivo at 32 mg/kg in the series with Mus musculus [30] worked out at 62%. In addition, the apparent permeability (Papp) at 2 h, 10 µM in series [31] stood at 37 ×10⁻⁶ cm/s.
With `CC(=O)C1CCN(CCOc2ccn(-c3ccc(Cl)c(Cl)c3)n2)CC1`, in the series with Mus musculus [1], the inhibition in vivo at 16 mg/kg turned out to be 73%. Moreover, the inhibition constant Ki was 0.0072 µM in series [32] and more than 1 µM in series [9]. Further, inhibition in series [33] was half-maximal at 4.5 µM (IC50). In addition, the microsomal CLint at 10 µM in series [25] was found to be 7 µL/min/mg.
For the molecule `c1ccc2cc(-n3ccc(OCCN4CCOCC4)n3)ccc2c1`, the inhibitory constant (Ki) in series [32] is 0.0333 µM; in [9], more than 1 µM. Also, the IC50 in [33] is more than 10 µM. In addition, in series [25], the microsomal CLint at 10 µM is 6 µL/min/mg. Further, the inhibition in vivo at 32 mg/kg in the series on Mus musculus [30] stood at 55%.
For the molecule `CC(C)C[C@H](CN)CC(=O)O` [PREGABALIN], the inhibition entry with Mus musculus [34] and with Mus musculus [35] was “Active” each time. Besides, in the series on Mus musculus [15], the Activity entry is “Toxic”.
